Format in all cases: cell-based, mouse
In one test the test system is cortical neurons. Description: Saponin axotomy of cortical neurons in three-chamber device, axonal fragmentation by tubulin labeling (Example 20). The settings on record: for occurrence of axon fragmentation after axotomy: 50 μM applied to the distal segments of axons at the time of axotomy, FIG. 29; for protective effect against axon fragmentation after axotomy: applied 24 h before axotomy (not shown). On the procedure:
The cortices of 14-day mouse embryos are dissected and dissociated as has already been described elsewhere, for example Eur J Neurosci 2001 June; 13(11): 2037-46 William S et al. The neurons are seeded into the somatic chamber (also called compartment) of the circuits at a density of 10^5 cells/cm^2. In this manner, about 4×10^4 neurons are seeded into the somatic chamber. The culture medium consists of DMEM containing 4.5 g/l D-glucose and pyruvate (Invitrogen, Carlsbad, USA), supplemented with 10% of FCS (fetal calf serum; PAA Laboratories, Pasching, Germany) and with 2% of B27 (Invitrogen). The medium is replaced every three days until the beginning of the experiment, and the cultures are conserved in an incubator at 37° C. and 5% CO2. The experiments are carried out after 7 to 8 days of culture in vitro. The calpain inhibitor N-acetyl-Leu-Leu-Nle-CHO (ALLN; Calbiochem), the general caspase inhibitor Z—V-A-D-fluoromethyl ketone (z-VAD; R1D Systems, Minneapolis, USA) and β-nicotinamide adenine dinucleotide hydrate (βNAD; Sigma) are introduced into the culture medium at the beginning of the experiments.
In order to carry out the axotomy, a flow of 15 μl of medium containing 0.1% of saponin is produced for 2 minutes in the central chamber. In order to avoid the flow of detergent entering the microchannels, an overpressure is maintained in the somatic and axonal chambers throughout the experiment. After 2 minutes of flow, the medium containing the saponin is removed and the central macrochannel is rinsed with culture medium for 5 min. Fresh medium is then added to this channel.
After a given culture time (optionally according to the moment at which the axotomy experiment is carried out), the neuron cultures are fixed with a 4% paraformaldehyde solution (Sigma) so as to undergo analysis by immunocytochemistry. The circuits are labeled by immunofluorescence with an anti-MAP2 antibody (rabbit IgG, 1:3000; Chemicon, Temecula, USA), and an anti-β-III-tubulin monoclonal antibody (mouse IgG, 1:3000; Sigma) for labeling the cytoskeletal proteins. The circuits are fluorescently labeled with Hoechst 33342 (1:25000; Sigma) for labeling the nucleus. In a separate experiment, the circuits were also labeled by immunofluorescence with an anti-glial fibrillary acidic protein antibody (GFAP, rabbit IgG, 1:5000; DakoCytomation, Glostrup, Denmark) which makes it possible to label the astrocytes. A part of the cultures was subjected to fixing and extraction. This procedure makes it possible to eliminate the tubulin free in the cytoplasm while at the same time fixing the microtubules. These cultures were labeled by immunofluorescence with an anti-a-tubulin monoclonal antibody conjugated to the fluorophore FITC (Sigma) and labeled with phalloidin linked to an Alexa Fluor 555 (Invitrogen) so as to reveal the microtubules and the actin cytoskeleton, respectively. The images were acquired using an inverted epifluorescence microscope (Zeiss, Goettingen, Germany) equipped with a CoolSnap HQ2 camera (Roper Scientific, Ottobrunn, Germany) and using the micro-manager acquisition software (http://www.micro-manager.org).
The axonal degeneration is estimated by comparing the type of tubulin labeling of fragmented axons or of intact axons. Good survival, in culture, of the cortical neurons is dependent on the initial seeding density, which must be high. Consequently, a large number of cortical axons invade the central and distal chambers. Moreover, since the cortical axons have many branches, the immunohistochemical analysis of the axonal tubulin in the axonal chambers is therefore complex, and the axons are difficult to individualize. The proportion of axon entering the central chamber and emerging in the distal axonal chamber was estimated by calculating a ratio of intensity of overall fluorescence of the b3-tubulin labeling of identical surface areas captured in the central chamber and the distal axonal chamber. […]

For the next test, the system named is Cerebellar neurons. Description: Axonal degeneration of cerebellar neurons after somatic staurosporin, microfluidic device D1 (Example 14). The following applies: for axon-protecting effect against staurosporin-induced axonal degeneration: compound applied concomitantly to the axons only, staurosporin on the somas. On the procedure:
Cerebellar neurons are seeded into microfluidic devices according to the invention and treated with an apoptosis inducer (1 μM staurosporin, STS) at the somatic level. This induces axonal degeneration in the distal chamber (Phi). Apoptosis-blocking compounds (zVAD) or proteases of calpain type (Cal-Inh) are applied specifically to the axons (and not to the somas). The “axon-protecting” effect is quantified on the graph on the right in FIG. 19. Devices D1 are used. Neurons (in this case from the cerebellum) are seeded and their axons pass through the asymmetrical microchannels so as to reach the second chamber (or the 3rd if the device has three compartments). A stress (in this case staurosporin, which is a pro-apoptotic agent) is applied to the soma of the neurons. […] The effect of “axon-protecting” molecules can thus be evaluated. FIG. 19 illustrates the start of axonal degeneration induced by the application of a pro-apoptotic stress applied to the somato-dendritic compartment of neurons. This causes the propagation of a destructive signal in the axon, which then degenerates early, before the cell soma.

The next test relates to striatal erk kinase. Description: Phosphorylation of striatal erk kinase in corticostriatal network, device D3 (Example 13). The following applies: after seven days in vitro; cortical depolarization. On the procedure: FIG. 18 represents microfluidic chambers separated by asymmetrical microchannels.
This experiment was carried out with the device D3.
The cortical neurons are seeded on the left and the striatal neurons on the right. After seven days in vitro, the cortical axons establish connections with the striatal neurons (β3-tubulin in green, striatal neurons in red (MAP2)).

Another test deals with cortical axons. Description: Axotomy of the central portion of cortical axons in three-chamber device D4, Wallerian degeneration model (Example 15). As for the experimental part: The microfluidic device represented in image 4a of FIG. 20 is similar to that described previously with reference to FIGS. 1C to 1H and comprises three chambers. It is device D4. This makes it possible to apply molecules of interest on the central portion of the axons, for example a detergent (Triton X100, 0.1%), applied for 1 min. […] In this example, although the cortical axons sectioned in their central portion are still intact after one hour of section, they degenerate after 4 h. This constitutes a model of Wallerian degeneration (degeneration of the distal portion of axons). The potential of compounds which protect against this effect can be evaluated by applying them specifically in one or more of the chambers of the device. […] This experiment was carried out with device D4. The experiment, carried out on a corticostriatal network, makes it possible to illustrate that it is possible to objectivize a phenomenon of synaptic degeneration after application of a stress at the cortical level (in this case axotomy) (disappearance of Vglu-1 labeling which is specific for cortical presynaptic structures). […] FIGS. 20 and 21 illustrate the consequences of the axotomy of cortical axons of a corticostriatal network. […]

For another test, the system named is corticostriatal network. Description: Synaptic degeneration on a corticostriatal network after cortical axotomy, Vglut-1 presynaptic structures (Example 16). The following applies: NAD added to striatal compartment at the time of axotomy / pretreated. On the procedure: Photographs a and b of FIG. 21 represent cortical, central and striatal chambers of reconstructed corticostriatal networks in three-chamber microfluidic devices.
The neurons were labeled on MAP2 (blue), β3-tubulin (green) and Vglut-1 (red).
Photograph c is representative of cortical-presynaptic structures (Vglut1, red) attached to striatable dendrites (MAP2, blue) after 1, 2, 4 and 6 hours of axotomy or controlled culture or culture pretreated with NAD.
Photograph d illustrates the quantification of a presynaptic cortical structure attached to MAP2-positive striatal dendrites after cortical axotomy.
This experiment was carried out with device D4. The experiment, carried out on a corticostriatal network, makes it possible to illustrate that it is possible to objectivize a phenomenon of synaptic degeneration after application of a stress at the cortical level (in this case axotomy) (disappearance of Vglu-1 labeling which is specific for cortical presynaptic structures). […] FIGS. 20 and 21 illustrate the consequences of the axotomy of cortical axons of a corticostriatal network. This axotomy causes the propagation of a signal resulting in rapid degeneration of the presynaptic compartment (FIG. 21) of the corticostriatal junction, and then in degeneration of the cortical axons (FIG. 20).

Here are results for eight molecules from patent publication US10767151B2, “Device for cell culture” (priority 2008, dated 2020).

Entries after “also recorded” stand apart in the source; their conditions may differ. Where a SMILES comes first, the peptide text is derived from it. [ ]: non-standard residue; d: D form. The star is where a group is joined. Nle = CCCC[C@H](N)C(=O)O; Cbz = O=C(OCc1ccccc1)*; CH2F = FC*

As for `CCCC[C@@H](C=O)NC(=O)[C@H](CC(C)C)NC(=O)[C@H](CC(C)C)NC(C)=O` [ALLN, N-acetyl-Leu-Leu-Nle-CHO] (Ac-Leu-Leu-[Nle]-aldehyde), in the test on cortical neurons, the “occurrence of axon fragmentation after axotomy” value is on record as “does not delay the occurrence of axon fragmentation” and the “protective effect against axon fragmentation after axotomy” value is given as “absence of protective effect”.

`COC(=O)C[C@H](NC(=O)[C@H](C)NC(=O)[C@@H](NC(=O)OCc1ccccc1)C(C)C)C(=O)CF` [zVAD] (Cbz-Val-Ala-Asp(OMe)-CH2F): in the test with cortical neurons, the “occurrence of axon fragmentation after axotomy” value is on record as “does not delay the occurrence of axon fragmentation” and the “protective effect against axon fragmentation after axotomy” value was “absence of protective effect”. In the test with Cerebellar neurons, the “axon-protecting effect against staurosporin-induced axonal degeneration” value was “prevents this degeneration; also recorded: delays this axonal degeneration”.

Turning to `C[C@]12N[C@H](Cc3ccccc31)c1ccccc12` [MK801], in the test with striatal erk kinase, the “phosphorylation of the striatal erk kinase” value is recorded as “inhibition”.

For the molecule `[Cl-].[K+]` [KCl], in the test on striatal erk kinase, the “phosphorylation of the striatal erk kinase” value was “triggers phosphorylation”.

For the molecule Triton X100, in the test on cortical axons (Triton X100 0.1% applied for 1 min on central portion of the axons), the “section of axons by detergent” value is “immediate section of the central portion of the axons”.

As for `CN[C@@H]1C[C@H]2O[C@@](C)([C@@H]1OC)n1c3ccccc3c3c4c(c5c6ccccc6n2c5c31)C(=O)NC4` [staurosporin], the “axon degeneration induced by stress applied to the soma” value with Cerebellar neurons (1 μM staurosporin at the somatic level, axons in distal chamber, in 24 h) is recorded as “induces axon degeneration”.

Consider saponin, for which the “destruction of axon segments by detergent flow” value in the test with cortical neurons (0.1% saponin, flow for 2 minutes in the central compartment) is “immediate destruction of the axon segments contained in the central compartment”.

With `NC(=O)c1ccc[n+]([C@@H]2O[C@H](COP(=O)([O-])OP(=O)(O)OC[C@H]3O[C@@H](n4cnc5c(N)ncnc54)[C@H](O)[C@@H]3O)[C@@H](O)[C@H]2O)c1` [NAD, β-nicotinamide adenine dinucleotide hydrate], the “presynaptic degeneration of the corticostriatal junction (Vglut-1)” value is on record as “delays presynaptic degeneration” in the test with corticostriatal network (FIG. 21, hydrate) and “Delays Deconnection” with corticostriatal network (FIG. 21, listed as NAD+, hydrate). For the same molecule, the “degeneration of cut axons” value in the test on cortical neurons (5 mM pretreatment 24 h before axotomy, 8 h after axotomy (all control axons fragmented)) is “do not exhibit any sign of degeneration”. For the same molecule, in the test on cortical neurons (5 mM pretreatment 24 h before axotomy, 24 hours after axotomy), the “persistence of axon protection” value was “protection disappears”. For the same molecule, in the test with cortical neurons (neurons pretreated 24 h before axotomy with 5 mM), the “signs of axonal degeneration after axotomy” value is “delayed”. In the test with cortical axons (after axotomy, NAD added to the striatal compartment at the time of axotomy, FIG. 20, hydrate), the “degeneration of transected cortical axons (axon-protecting effect)” value was “axon-protecting effect; also recorded: delays”. Further, the “axon-protecting effect against staurosporin-induced axonal degeneration” value in the test with Cerebellar neurons was “delays this axonal degeneration”.
